Measured values taken from patent US6413982B1, “4-substituted quinoline derivatives” (Neurogen Corporation, priority 1999, dated 2002).

Target: T1, NK-3 receptor (Homo sapiens, UniProt P29371)
T1 construct: expressed in transfected cells; total cellular membranes
T1 sequence (P29371 1-465): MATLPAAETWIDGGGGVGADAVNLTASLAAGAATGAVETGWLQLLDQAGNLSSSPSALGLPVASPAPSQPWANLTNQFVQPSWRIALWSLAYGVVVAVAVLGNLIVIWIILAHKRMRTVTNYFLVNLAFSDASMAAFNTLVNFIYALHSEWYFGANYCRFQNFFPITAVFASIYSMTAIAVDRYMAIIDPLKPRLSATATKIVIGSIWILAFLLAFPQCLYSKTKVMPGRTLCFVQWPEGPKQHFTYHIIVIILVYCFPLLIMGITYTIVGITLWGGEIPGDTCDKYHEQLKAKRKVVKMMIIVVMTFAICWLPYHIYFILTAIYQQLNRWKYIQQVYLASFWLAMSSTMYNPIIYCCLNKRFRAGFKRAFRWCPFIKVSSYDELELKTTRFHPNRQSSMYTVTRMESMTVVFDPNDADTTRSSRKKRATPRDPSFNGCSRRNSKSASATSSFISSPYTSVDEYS
Assay: Assay for NK-3 receptor binding activity
Settings: displacement of 125I-methylPhe7-neurokinin B, membranes of CHO cells expressing cloned human NK-3 receptor, 2 hours at 4° C.
Experimental: The following assay is a standard assay for NK-3 receptor binding activity. Assays are performed as described in Krause et al (Proc. Natl. Acad. Sci. USA 94: 310-315, 1997). The NK-3 receptor complementary DNA is cloned from human hypothalamic RNA using standard procedures. The receptor cDNA is inserted into the expression vector pM^2 to transfect the mammalian Chinese hamster ovary cell line, and a stably expressing clonal cell line is isolated, characterized and used for the current experiments. Cells are grown in minimal essential medium alpha containing 10% fetal bovine serum and 250 μg/ml G418. Cells are liberated from cell culture plates with No-zyme (PBS base, JRH Biosciences), and harvested by low speed centrifugation. […]
Receptor binding assays contain a total volume of 200 μl containing 50 μg membrane protein, 0.05-0.15 nM 125I-methylPhe7-neurokinin B, drug or blocker in TBS containing 1.0 mg/ml bovine serum albumen, 0.2 mg/ml bacitracin, 20 μg/ml leupeptin and 20 μg/ml chymostatin. […] After filtration of the incubation mixture, filters are rinsed 4 times with ice-cold TBS containing 0.01% sodium dodecyl sulfate and radioactivity is quantitated in a β-plate scintillation counter. […] Data are collected in duplicate determinations, averaged, and the percent inhibition of total specific binding is calculated. […]

IC50 | Compound
19 nM | CCC1(c2ccccc2)CN=C(c2c(OC)c(-c3ccccc3)nc3ccccc23)N1 (centres unmarked) [Example 1, 5-Ethyl-5-phenyl-2-(3-methoxy-2-phenylquinolin-4-yl)-imidazoline]
0.3 nM | CCC1(c2ccccc2)CN=C(c2c(C)c(-c3ccccc3)nc3ccccc23)N1 (centres unmarked) [Example 2]
